Holding throughout (format): cell-based, mouse
Assay [1] relates to differentiating TH17 cells. Briefly: TH17 differentiation of CD4 naïve T cells (IL17F-RFP/FOXP3-GFP reporter or intracellular staining of IL-17 and FOXP3). As to conditions: compound added after 24 hours of TH17 differentiation, analyzed on day 6. On the procedure: (§1) CD4 naïve T cells (CD4+CD25-CD62^highCD44^low) were obtained from interleukin (IL)-17F-red fluorescent protein (RFP)/FOXP3-green fluorescent protein (GFP) mice, which were characterized previously, or wild-type C57/BL6 mice, by cell sorting. 0.4 million cells were plated into 48 wells coated with anti-mouse CD3 (clone 145-2C11, eBioscience) […] and anti-mouse CD28 (clone 37.51, eBioscience) (1 μg/ml). The differentiation media for these naïve T cells was as follows: 0.5 ng/ml (or indicated) transforming growth factor (TGF) β, 200 U/ml mouse IL-2, 2 μg/ml anti-interferon (IFN) γ and 2 μg/ml anti-mouse IL4 for differentiation into iTreg cells; and 2.5 ng/ml TGFβ, 10 ng/ml mouse IL-1β, 10 ng/ml mouse IL-6, 10 ng/ml mouse IL-23, 2 μg/ml anti-mouse IFNγ, and anti-mouse IL-4 for differentiating into TH17 cells. The cells were supplemented with new medium at day 4. In cases in which small-molecule compounds were present, the fresh medium containing the same concentration of compounds was used. When necessary, the individual metabolite was added into the T-cell culture 6 hours later after initial cell plating. On day 6, the cells were analyzed for IL17F-RFP and FOXP3-GFP or the cells were collected and restimulated for 4-6 hours with PMA, inomycin, and Golgi-stop for intracellular staining in absence of indicated compounds.
To identify small molecules that regulate cell-fate switching of TH17/iTreg cells and to further understand the regulation of the TH17/iTreg balance, 10,000 individual small molecules were phenotypically screened using CD4 naïve T cells from IL-17F-RFP/FOXP3-GFP mice. The naïve T cells were cultured under optimal TH17 differentiation conditions and compounds that could reprogram TH17 differentiation toward iTreg cell fate were identified using the reporter readout. Briefly, after TH17 differentiation for 24 hours, compounds were added to TH17 culture, and the treatment was continued for an additional 5 days before the cells were analyzed for IL17F-RFP and FOXP3-GFP expression by high-throughput fluorescence-activated cell sorting (FACS) (FIG. 5a). […] This effect of reprogrammed differentiation was further confirmed by intracellular immunostaining of IL-17 and FOXP3 (FIG. 1a).

The subject of assay [2] is differentiating iTreg cells. The experiment in a line: iTreg differentiation of CD4 naïve T cells (FOXP3-GFP reporter or intracellular staining of FOXP3). The settings on record: AOA added after 24 hours, analyzed at end of differentiation. On the procedure: as §1, with “On day 6, the cells were analyzed for IL17F-RFP and FOXP3-GFP or the cells were collected and restimulated for 4-6 hours with PMA, inomycin, and Golgi-stop for intracellular staining in absence of indicated compounds.” left out

In assay [3] the test system is FOXP3, Il17, Il17f, and Rorc mRNA in TH17 cells. The experiment in a line: mRNA expression analysis by qRT-PCR in TH17 cells. The settings on record: normalized to β-actin. How it is done: At the end of differentiation (day 6), T cells were re-stimulated with plate-coated anti-CD3 and anti-CD28 for 5 hours in the absence of any small-molecule compounds or metabolites. Quantitative reverse transcriptase polymerase chain reaction (qRT-PCR) was performed to evaluate mRNA expression of FOXP3, Il17, Il17f, and Rorc. For differentiating TH17 or iTreg cells, cells were collected on day 2.5 or at the indicated time for mRNA expression analysis. The expression was normalized to β-actin.

Assay [4] relates to differentiating TH17 cells. Briefly: U-13C glutamine flux analysis in differentiating TH17 cells. As to conditions: 2 mM U-13C-glutamine for 4 hours. How it is done:
(§2) CD4 naïve T cells, differentiating TH17 or iTreg cells (68 hours) were incubated with fresh media prior to labeling. The cells were then cultured for 4 hours at 37° C. with medium where the glutamine was replaced with the corresponding stable isotope label: 2 mM U-^13C glutamine or 2 mM ^15N-α-glutamine for 4 hours at 37° C. The cells were quickly collected and quickly washed with phosphate buffer saline (PBS), pelleted, and snap frozen in liquid nitrogen. The frozen samples were kept in −80° C. until extraction. Cell extracts were prepared by first adding 80/20 MeOH/H2O at −60° C. to the frozen pellets and collecting the supernatant after centrifugation at 4° C. The extracted samples were analyzed by high-resolution liquid-chromatography-mass spectrometry. Unlabeled glutamine-fed cells were used as background. For negative mode metabolomics: Cell extracts obtained as described above were analyzed for relative abundance of metabolites by liquid chromatography-triple quadrupole mass spectrometry (LC-MS) using scheduled selective reaction monitoring (SRM) for each metabolite of interest, with the detector set to negative mode. Prior to injection, dried extracts were reconstituted in LC-MS grade water. LC separation was achieved by reverse-phase ion-pairing chromatography.

The test system of assay [5] is differentiating iTreg cells. The experiment in a line: U-13C glutamine flux analysis in differentiating iTreg cells. As to conditions: 2 mM U-13C-glutamine for 4 hours. How it is done: as §2
Assay [6] concerns FOXP3 promoter and its intronic CpG island. The experiment in a line: Methylation analysis by bisulfite sequencing, T cells under TH17 condition. As to conditions: 0.5 mM dimethyl R-2-HG (day 4) or AOA (day 6), male mice. On the procedure:
The method is essentially the same as described previously (Kim, et al. J Exp Med 204 (7), 1543-1551 (2007)). Briefly, genomic DNA was purified with Blood & Cell Culture DNA Midi Kit (Qiagen). Bisufite conversion of genomic DNA was performed using Epitect® bisulfite kit (Qiagen), according to the manufacture's instruction. The PCR product was run on 2% agarose, purified and cloned using TOPO® TA Cloning® Kit with PCR®4. Clones are picked for Sanger sequencing.

With `NOCC(=O)O` [AOA, (aminooxy)-acetic acid], the “reprogramming of TH17 induction to iTreg cells (IL17F-expressing and FOXP3-expressing cells)” value in assay [1] is on record as “reprogram TH17 induction to iTreg cells in a dose-dependent manner”. The “iTreg cell induction under iTreg differentiation conditions” value in assay [2] was “dose-dependently promote iTreg cell induction”. For the same compound, in assay [3], the “FOXP3 mRNA expression” value was “promoted transcription of FOXP3”. Also, the “Il17/Il17f mRNA level” value in assay [3] (re-stimulated with anti-CD3 and anti-CD28 for 5 hours) is given as “selectively reduced the mRNA level of Il17/Il17f”. Moreover, the “de novo synthesis of α-KG and 2-HG (U-13C labeled, normalized to U-13C-glutamine)” value in assay [4] and in assay [5] was “inhibited” in each case. Besides, in assay [6], the “methylation level of FOXP3 promoter and its intronic CpG island” value is recorded as “dramatically decreased the methylation levels”.

(Values after patent publication US11241455B2, “Methods of treating disease by metabolic control of T-cell differentiation” (The J. David Gladstone Institutes, a testamentary trust …, priority 2016, dated 2022).)
